Laboratory results from ChEMBL document CHEMBL1909046, “DrugMatrix in vitro pharmacology data”.

Tests used:
[1] = target: C-C chemokine receptor type 2 (Homo sapiens, UniProt P41597); assay type: cell membranes, CHO-K1, Membrane; conditions: cho-k1
[2] = target: T1, C-X-C chemokine receptor type 1 (Homo sapiens, UniProt P25024)
T1 sequence (P25024 whole entry): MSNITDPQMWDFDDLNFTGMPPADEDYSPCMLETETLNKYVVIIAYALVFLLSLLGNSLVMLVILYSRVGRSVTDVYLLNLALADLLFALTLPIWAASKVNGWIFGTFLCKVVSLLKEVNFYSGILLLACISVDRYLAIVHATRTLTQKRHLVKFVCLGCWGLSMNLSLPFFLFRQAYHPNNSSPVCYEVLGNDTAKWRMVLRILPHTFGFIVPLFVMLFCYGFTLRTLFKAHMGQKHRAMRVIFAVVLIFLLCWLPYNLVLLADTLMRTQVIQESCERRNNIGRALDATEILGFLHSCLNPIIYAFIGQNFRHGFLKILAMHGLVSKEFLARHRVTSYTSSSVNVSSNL

[3] = target: T2, C-X-C chemokine receptor type 2 (Homo sapiens, UniProt P25025); assay type: cell membranes, Membrane; conditions: cho-k1
T2 sequence (P25025 whole entry): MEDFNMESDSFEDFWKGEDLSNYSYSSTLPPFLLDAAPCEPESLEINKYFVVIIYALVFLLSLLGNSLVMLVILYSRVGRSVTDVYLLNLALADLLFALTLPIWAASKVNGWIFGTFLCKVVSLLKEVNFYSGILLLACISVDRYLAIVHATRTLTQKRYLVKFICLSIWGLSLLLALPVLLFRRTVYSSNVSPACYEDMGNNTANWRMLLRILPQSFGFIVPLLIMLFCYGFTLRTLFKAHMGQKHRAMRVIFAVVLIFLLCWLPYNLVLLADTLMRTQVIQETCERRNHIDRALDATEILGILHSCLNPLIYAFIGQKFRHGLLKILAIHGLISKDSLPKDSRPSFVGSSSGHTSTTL

Histamine H2 receptor = Histamine H2 receptor (Homo sapiens, UniProt P25021); assay type: cell membranes, CHO-K1, Membrane
Histamine H2 receptor, sequence (P25021 whole entry): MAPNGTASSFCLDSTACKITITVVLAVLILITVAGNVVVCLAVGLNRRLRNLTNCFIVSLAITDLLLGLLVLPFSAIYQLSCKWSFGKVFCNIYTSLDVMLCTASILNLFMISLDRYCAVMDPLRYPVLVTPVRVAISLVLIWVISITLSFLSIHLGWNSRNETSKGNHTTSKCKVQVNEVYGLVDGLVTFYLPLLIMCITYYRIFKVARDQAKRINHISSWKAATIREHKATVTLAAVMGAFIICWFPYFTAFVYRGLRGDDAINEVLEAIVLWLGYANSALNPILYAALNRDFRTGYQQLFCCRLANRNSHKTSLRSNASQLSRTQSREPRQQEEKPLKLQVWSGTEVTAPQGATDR

[4] = target: T3, Muscarinic acetylcholine receptor M2 (Homo sapiens, UniProt P08172); assay type: cell membranes, CHO-K1, Membrane; conditions: cho-k1
T3 sequence (P08172 whole entry): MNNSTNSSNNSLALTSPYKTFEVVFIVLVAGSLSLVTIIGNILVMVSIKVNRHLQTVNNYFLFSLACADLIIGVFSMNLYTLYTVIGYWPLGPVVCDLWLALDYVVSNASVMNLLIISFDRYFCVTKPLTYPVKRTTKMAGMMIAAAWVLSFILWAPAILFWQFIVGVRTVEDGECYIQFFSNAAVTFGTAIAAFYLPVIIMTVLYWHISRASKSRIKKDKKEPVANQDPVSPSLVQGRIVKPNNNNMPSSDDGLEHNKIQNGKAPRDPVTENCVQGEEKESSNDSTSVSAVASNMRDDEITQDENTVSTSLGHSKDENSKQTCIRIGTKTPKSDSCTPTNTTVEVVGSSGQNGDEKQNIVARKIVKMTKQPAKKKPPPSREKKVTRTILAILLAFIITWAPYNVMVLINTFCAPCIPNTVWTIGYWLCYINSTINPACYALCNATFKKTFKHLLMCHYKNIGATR

[5] = target: T4, 5-hydroxytryptamine receptor 1A (Rattus norvegicus, UniProt P19327); assay type: cell membranes, CHO-K1, Membrane
T4 sequence (P19327 whole entry): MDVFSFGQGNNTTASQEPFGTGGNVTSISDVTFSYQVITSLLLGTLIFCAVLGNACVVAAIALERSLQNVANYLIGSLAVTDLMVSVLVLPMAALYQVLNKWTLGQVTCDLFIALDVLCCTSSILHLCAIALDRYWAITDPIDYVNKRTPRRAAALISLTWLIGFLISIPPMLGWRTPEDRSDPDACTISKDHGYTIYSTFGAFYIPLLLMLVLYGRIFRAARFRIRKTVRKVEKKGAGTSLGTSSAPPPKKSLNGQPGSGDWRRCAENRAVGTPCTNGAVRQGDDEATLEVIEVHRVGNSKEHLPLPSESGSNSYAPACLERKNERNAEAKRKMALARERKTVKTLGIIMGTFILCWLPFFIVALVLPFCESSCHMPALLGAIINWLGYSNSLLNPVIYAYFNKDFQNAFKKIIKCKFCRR

Estrogen receptor beta = Estrogen receptor beta (Homo sapiens, UniProt Q92731); conditions: sf9
Estrogen receptor beta, sequence (Q92731 whole entry): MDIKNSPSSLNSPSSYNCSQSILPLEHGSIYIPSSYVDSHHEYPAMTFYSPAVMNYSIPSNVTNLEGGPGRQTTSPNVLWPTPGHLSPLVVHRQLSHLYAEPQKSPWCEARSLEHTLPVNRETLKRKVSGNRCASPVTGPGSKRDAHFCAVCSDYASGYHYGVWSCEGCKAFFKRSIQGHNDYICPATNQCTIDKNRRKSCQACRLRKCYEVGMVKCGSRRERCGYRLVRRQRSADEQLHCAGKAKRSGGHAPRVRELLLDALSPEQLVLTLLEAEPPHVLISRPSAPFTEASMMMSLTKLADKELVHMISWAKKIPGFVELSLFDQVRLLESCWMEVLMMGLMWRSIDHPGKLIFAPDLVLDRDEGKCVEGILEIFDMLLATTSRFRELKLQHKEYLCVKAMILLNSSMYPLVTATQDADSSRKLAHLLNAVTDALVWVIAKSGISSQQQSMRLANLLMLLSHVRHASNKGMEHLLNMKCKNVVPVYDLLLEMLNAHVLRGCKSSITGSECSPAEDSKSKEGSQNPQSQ
Note: in other assays of this panel Not Active means under 50% inhibition at 10 µM.

C-C chemokine receptor type 2, sequence (P41597 whole entry): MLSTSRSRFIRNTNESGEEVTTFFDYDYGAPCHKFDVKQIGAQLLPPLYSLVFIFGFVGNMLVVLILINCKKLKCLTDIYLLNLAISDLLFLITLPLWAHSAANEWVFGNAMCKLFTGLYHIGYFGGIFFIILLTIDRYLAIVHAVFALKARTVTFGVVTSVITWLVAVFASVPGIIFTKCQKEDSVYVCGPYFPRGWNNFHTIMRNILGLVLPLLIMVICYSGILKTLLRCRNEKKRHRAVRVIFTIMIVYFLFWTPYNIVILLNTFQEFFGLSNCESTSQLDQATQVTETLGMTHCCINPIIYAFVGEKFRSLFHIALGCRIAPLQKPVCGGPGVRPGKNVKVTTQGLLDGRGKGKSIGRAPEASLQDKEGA

| Compound | IC50 [1] | IC50 [2] | IC50 [3] | IC50 (Histamine H2 receptor; cho-k1) | IC50 [4] | IC50 ([5]; cho-k1) | IC50 (Estrogen receptor beta) | IC50 (Histamine H2 receptor; read-out: IC50) | Ki (Histamine H2 receptor; read-out: Ki) | IC50 ([5]; read-out: IC50) | Ki ([5]; read-out: Ki) | Ki [1] | Ki [2] | Ki [3] | Ki (Histamine H2 receptor; cho-k1) | Ki [4] | Ki ([5]; cho-k1) | Ki (Estrogen receptor beta) |
| --- | --- | --- | --- | --- | --- | --- | --- | --- | --- | --- | --- | --- | --- | --- | --- | --- | --- | --- |
| CCOC(N)=O | Not Active | Not Active | Not Active | Not Active | Not Active | Not Active |  |  |  |  |  |  |  |  |  |  |  |  |
| COc1ccc(CN2CCNCC2)c(OC)c1OC [TRIMETAZIDINE] | Not Active | Not Active | Not Active | Not Active | Not Active | Not Active | Not Active |  |  |  |  |  |  |  |  |  |  |  |
| CC(=O)O[C@H]1C[C@@H]2CC[C@@H]3[C@H](CC[C@@]4(C)[C@H]3C[C@H]([N+]3(C)CCCCC3)[C@@H]4OC(C)=O)[C@@]2(C)C[C@@H]1N1CCCCC1.[Br-] [VECURONIUM BROMIDE] | Not Active | Not Active | Not Active | Not Active | Not Active | Not Active |  |  |  |  |  |  |  |  |  |  |  |  |
| C[C@@H]1C[C@H]2[C@@H]3CCC4=CC(=O)C=C[C@]4(C)C3=CC[C@]2(C)[C@H]1C(=O)CN1CCN(c2cc(N3CCCC3)nc(N3CCCC3)n2)CC1 [TIRILAZAD] | Not Active | Not Active | Not Active |  | Not Active | Not Active | Not Active | 14.1 µM | 13.9 µM |  |  |  |  |  |  |  |  |  |
| CC(C)OC(=O)C(C)(C)Oc1ccc(C(=O)c2ccc(Cl)cc2)cc1 [FENOFIBRATE] | Not Active | Not Active | Not Active | Not Active | Not Active | Not Active | Not Active |  |  |  |  |  |  |  |  |  |  |  |
| C[C@@H](O)[C@H]1C(=O)N2C(C(=O)O)=C(S[C@@H]3CN[C@H](C(=O)N(C)C)C3)[C@H](C)[C@H]12 [MEROPENEM] | Not Active | Not Active | Not Active | Not Active | Not Active | Not Active | Not Active |  |  |  |  |  |  |  |  |  |  |  |
| CC[C@@H](CO)NC(=O)[C@@H]1C=C2c3cccc4c3c(cn4C)C[C@H]2N(C)C1 [METHYSERGIDE] | Not Active | Not Active | Not Active | Not Active | Not Active |  | Not Active |  |  | 54 nM | 31 nM |  |  |  |  |  |  |  |
| CC(C)(C)NC[C@H](O)COc1nsnc1N1CCOCC1 [TIMOLOL] | Not Active | Not Active | Not Active | Not Active | Not Active |  |  |  |  | 2710 nM | 1550 nM |  |  |  |  |  |  |  |
| CCN(CC)CC#CCOC(=O)C(O)(c1ccccc1)C1CCCCC1 (centres undefined) [OXYBUTYNIN] | Not Active | Not Active | Not Active | Not Active |  | Not Active | Not Active |  |  |  |  |  |  |  |  |  |  |  |
| O=c1[nH]c2ccccc2n1CCCN1CCC(n2c(=O)[nH]c3cc(Cl)ccc32)CC1 [DOMPERIDONE] | Not Active | Not Active | Not Active | Not Active | Not Active | Not Active | Not Active |  |  |  |  |  |  |  |  |  |  |  |
| CC1=C(CC(=O)O)c2cc(F)ccc2/C1=C\c1ccc(S(C)(=O)=O)cc1 [EXISULIND] | Not Active | Not Active | Not Active | Not Active | Not Active | Not Active | Not Active |  |  |  |  |  |  |  |  |  |  |  |
| COc1ncnc(NS(=O)(=O)c2ccc(N)cc2)c1OC [SULFADOXINE] | Not Active | Not Active | Not Active | Not Active | Not Active | Not Active | Not Active |  |  |  |  |  |  |  |  |  |  |  |
| CC(=O)Nc1nnc(S(N)(=O)=O)s1 [ACETAZOLAMIDE] | Not Active | Not Active | Not Active | Not Active | Not Active | Not Active | Not Active |  |  |  |  |  |  |  |  |  |  |  |
| CO[C@H]1C[C@@H]2CC[C@@H](C)[C@@](O)(O2)C(=O)C(=O)N2CCCC[C@H]2C(=O)O[C@H]([C@H](C)C[C@@H]2CC[C@@H](O)[C@H](OC)C2)CC(=O)[C@H](C)/C=C(\C)[C@@H](O)[C@@H](OC)C(=O)[C@H](C)C[C@H](C)/C=C/C=C/C=C/1C [SIROLIMUS] | Not Active | Not Active | Not Active | Not Active | Not Active | Not Active | Not Active |  |  |  |  |  |  |  |  |  |  |  |
| OCCN1CCN(CCCN2c3ccccc3Sc3ccc(C(F)(F)F)cc32)CC1 [FLUPHENAZINE] | Not Active | Not Active | Not Active |  |  |  | Not Active | 1.23 µM | 1.2 µM | 1640 nM | 939 nM |  |  |  |  |  |  |  |
| Cc1cn([C@H]2C[C@H](N=[N+]=[N-])[C@@H](CO)O2)c(=O)[nH]c1=O [ZIDOVUDINE] | Not Active | Not Active | Not Active | Not Active | Not Active | Not Active |  |  |  |  |  |  |  |  |  |  |  |  |
| THIMEROSAL | Not Active | Not Active | Not Active | Not Active | Not Active | Not Active | Not Active |  |  |  |  | Not Active | Not Active | Not Active | Not Active | Not Active | Not Active | Not Active |
| NC[C@H]1O[C@H](O[C@H]2[C@H](O)[C@@H](O[C@H]3O[C@H](CO)[C@@H](O)[C@H](N)[C@H]3O)[C@H](N)C[C@@H]2N)[C@H](N)C[C@@H]1O [TOBRAMYCIN] | Not Active | Not Active | Not Active | Not Active | Not Active | Not Active | Not Active |  |  |  |  |  |  |  |  |  |  |  |
| O=P(O)(O)C(O)(Cc1cccnc1)P(=O)(O)O [RISEDRONIC ACID] | Not Active | Not Active | Not Active | Not Active | Not Active | Not Active |  |  |  |  |  |  |  |  |  |  |  |  |
| Nc1ccc(S(=O)(=O)Nc2nccs2)cc1 [SULFATHIAZOLE] | Not Active | Not Active | Not Active | Not Active | Not Active | Not Active |  |  |  |  |  |  |  |  |  |  |  |  |
| CN[C@@H]1[C@H](O)[C@H](NC)[C@H]2O[C@@]3(O)C(=O)C[C@@H](C)O[C@H]3O[C@@H]2[C@H]1O [SPECTINOMYCIN] | Not Active | Not Active | Not Active | Not Active | Not Active | Not Active |  |  |  |  |  |  |  |  |  |  |  |  |
| C=C(C)[C@H]1Cc2c(ccc3c2O[C@@H]2COc4cc(OC)c(OC)cc4[C@@H]2C3=O)O1 [ROTENONE] | Not Active | Not Active | Not Active | Not Active | Not Active | Not Active |  |  |  |  |  |  |  |  |  |  |  |  |
| O=c1n(CCCN2CCN(c3cccc(Cl)c3)CC2)nc2ccccn12 [TRAZODONE] | Not Active | Not Active | Not Active | Not Active | Not Active |  |  |  |  |  |  |  |  |  |  |  |  |  |
| O=C(O)C(Cl)(Cl)Cl [TRICHLOROACETIC ACID] | Not Active | Not Active | Not Active | Not Active | Not Active | Not Active |  |  |  |  |  |  |  |  |  |  |  |  |
| CCCc1nn(C)c2c(=O)[nH]c(-c3cc(S(=O)(=O)N4CCN(C)CC4)ccc3OCC)nc12 | Not Active | Not Active | Not Active | Not Active | Not Active | Not Active |  |  |  |  |  |  |  |  |  |  |  |  |
| CCS(=O)(=O)CCn1c([N+](=O)[O-])cnc1C [TINIDAZOLE] | Not Active | Not Active | Not Active | Not Active | Not Active | Not Active |  |  |  |  |  |  |  |  |  |  |  |  |
